Assay results taken from patent publication US8383662B2, “Bicyclic heteroaryl compounds” (National Chiao Tung University, priority 2006, dated 2013).

Tests used:
[1] = test system: 4T1^LUC+ cells; experiment: In vivo assay on inhibiting spontaneous metastasis; set-up: species or system BALB/c mice; conditions: 50 mg/kg i.p. once daily; for luminescent signal intensity (metastatic tumor burden): end of the fourth week after compound treatment (sixth week after implantation), FIG. 2
Procedure: To investigate the effect of test compounds on distant spontaneous metastasis generated by the tumor cells, 4T1^LUC+ cells obtained by the method described in Example 188 were implanted into the right inguinal mammary fat pads of 6-week old BALB/c mice (1×10^5 cells in 100 μL PBS/mouse). After 14 days of tumor cell implantation, a single dose of 50 mg/kg body weight of a test compound or vehicle was administered intraperitoneally once daily. Compounds 2, 56, and 91 were used in this assay. Sorafenib (Nexavar®) and sunitinib (Sutent®) were also used as reference compounds.
A total of 36 mice, six for each of the six groups (i.e., 5 groups treated with test compounds and 1 vehicle group), were imaged once weekly for a period of 6 weeks after tumor cell implantation via bioluminescence imaging.
In vivo bioluminescence imaging was conducted on a cryogenically cooled IVIS™ system (Xenogen Corp., Alameda, Calif.) coupled to a data-acquisition PC running Living Image version 3.1 software (Xenogen Corp.). Before imaging, animals were anesthetized in a plastic chamber filled with 2% isofluorane/air mixture and 150 mg/mL of luciferin (potassium salt, Xenogen Corp.) and normal saline was injected (i.p.) into each mouse at a dose of 150 mg/kg body weight. This dose and route of administration has been previously shown to be optimal for studies in rodents when images were acquired between 10 and 20 minutes post-luciferin administration (Contag C H et al. 1997 Photochem Photobiol.; 66:523-531). During image acquisition, isofluorane anesthesia was maintained using a nose cone delivery system and animal body temperature was regulated using a digitally thermostated bed integrated within the IVIS™ system (Xenogen Corp., Alameda, Calif.). A gray scale body surface image was collected in the chamber under dim illumination, followed by acquisition and overlay of the pseudocolor image representing the spatial distribution of detected photon counts emerging from active luciferase within the animal. An integration time of 1 minute was used for luminescent image acquisition.
The average of the in vivo bioluminescence intensities measured on the 14th day post tumor cell implantation but before treatment with test compounds severed as a baseline, corresponding to the metastatic tumor burden of the vehicle group, as shown in FIG. 2.

[2] = test system: 4T1^LUC+ cells; experiment: Effects on tumor recurrence and survival rate; type: in vivo, BALB/c mice; conditions: 50 mg/kg i.p. once daily; for overall survival life span: compared with vehicle group, FIG. 4; for luminescent signal intensity after tumor resection (tumor recurrence): sustain treatment vs stop treatment, FIG. 3
Procedure: 4T1^LUC+ cells obtained by the method described in Example 188 were implanted into the right inguinal mammary fat pads of 6 to 8-week old female BALB/c mice (1×10^5 cells in 100 μL PBS/mouse). After 14 days of tumor cell implantation, a single dose of 50 mg/kg body weight of a test compound or vehicle (PBS) was administered intraperitoneally once daily for three weeks. Compounds 2, 56, and 91 were tested in this assay. Sorafenib (Nexavar®) and sunitinib (Sutent®) were also used as reference compounds.
At the end of three-week treatment, the orthotopically grown tumors were surgically removed from the six groups of mice (i.e., 5 groups each treated with a test compound and 1 vehicle group). Then each of the six groups (i.e., 5 groups each treated with a test compound and 1 vehicle group) were divided into two subgroups, one with no further drug treatment (denoted as “stop treatment” in FIG. 3) and the other with continued drug treatment for 35 days (denoted as the “sustain treatment” in FIG. 3).
Bioluminescent data were collected in a manner similar to that described in Example 189 above at the end of day 35 after tumor resection.

[3] = molecular target: T1, VEGF receptor 3 (Homo sapiens, UniProt P35916); experiment: KIRA-ELISA assay (VEGFR3 phosphotyrosine after VEGF-C stimulation); type: cell-based; conditions: NCI-H928, H928 cells stimulated by recombinant VEGF-C, read-out: inhibition percentage
T1 construct: lyse the cells and solubilize the VEGFR3; endogenous in cells; host or cells: H928 cells
Procedure: This assay was performed in two microtiter plates. The first plate was used to culture an adherent cell line expressing the VEGF receptor 3 and to stimulate the receptor with a test compound. The second plate was used to capture the solubilized membrane receptor, which was then probed for phosphotyrosine content with phosphotyrosine-specific antibody.
Specifically, H928 cells (2×10^5) in 100 μl medium were added to each well in a flat-bottom 24-well culture plate and cultured overnight at 37° C. in 5% CO2. After the supernatants were removed, the cells were serum-starved for 24 hours. A medium containing a test compound was added into each well and the cell culture was incubated for 30 minutes before it was stimulated by recombinant VEGF-C for 15 minutes. After the supernatants were removed, 100 μl of a lysis buffer were added into each well to lyse the cells and solubilize the VEGFR3. […] The absorbance at 450 nm and the absorbance at a reference wavelength of 650 nm (A450/650) were measured using an ELISA reader.
The inhibition efficacy of each test compound is expressed as an inhibition percentage calculated according to the following formula: 1−[(C−A)/(B−A)]. In this formula, A is the basal amount of phosphotyrosine detected in a blank control, B is the amount of phosphotyrosine detected with VEGF-C only, and C is the amount of phosphotyrosine detected with a test compound and VEGF-C.

[4] = test system: 4T1^LUC+ cells (murine 4T1 breast cancer); experiment: In vivo assay on tumor growth inhibition; set-up: species or system BALB/c mice
Procedure: Compounds were tested for their efficacy in inhibiting tumor growth on murine tumor xenografts.
Murine 4T1 breast cancer cells (purchased from the American Type Culture Collection) were cultured to sub confluence in RPMI medium supplemented with 10% fetal bovine serum (GIBCO Invitrogen Corp.) at 37° C., 90% humidity and 5% CO2. The 4T1^LUC+ cells were established by the stable transfection of the firefly luciferase gene (pGL3-control, Promega Corporation) to 4T1 cells using LipofectAMINE PLUS Reagent (Life Technologies, Inc., Grand Island, N.Y.) for quantitative assessment of tumor burden in visceral organs. pcDNA3 vector (Invitrogen Co., Carlsbad, Calif.) was cotransfected for the selection by G418 (Sigma). The resulting 4T1^LUC+ colonies were isolated and cultured independently and the best expressing lines were identified based on the level of bioluminescent activity in the presence of luciferin in living cells. Highly bioluminescent clone was selected for further studies. […]
The length (i.e., the biggest diameter) and width (i.e., the smallest diameter) of the tumor was measured every 3.5 days by using a Vernier caliper. The tumor volume was then calculated as follows: volume=A×B^2×0.52, where A is the length of the tumor and B is the width of the tumor.

[5] = test system: 4T1 cells / 4T1^luc+ cells; experiment: Effects on tumor self-seeding; type: in vivo, BALB/c mice; conditions: 50 mg/kg orally once daily
Procedure: Unlabeled parental 4T1 cells were implanted into a mammary gland of 6 to 8-week old female BALB/c mice (1×10^5 cells in 100 μL PBS/mouse). After 14 days of tumor cell implantation, a single dose of 50 mg/kg body weight of a test compound or vehicle (PBS) was administered orally once daily for 2 days. Compound 56 was tested in this assay. Sunitinib (Sutent®) was used as a reference compound. Then 4T1^luc+ cells (1×10^5 cells in 100 μL PBS/mouse) were injected into the circulatory system of the mice by intracardiac injection. The mice were then administered orally with a single dose of 50 mg/kg body weight of a test compound or vehicle (PBS) once daily for 2 days.
Bioluminescent data were collected in a manner similar to that described in Example 189 above.

T1 sequence (P35916 25-1363): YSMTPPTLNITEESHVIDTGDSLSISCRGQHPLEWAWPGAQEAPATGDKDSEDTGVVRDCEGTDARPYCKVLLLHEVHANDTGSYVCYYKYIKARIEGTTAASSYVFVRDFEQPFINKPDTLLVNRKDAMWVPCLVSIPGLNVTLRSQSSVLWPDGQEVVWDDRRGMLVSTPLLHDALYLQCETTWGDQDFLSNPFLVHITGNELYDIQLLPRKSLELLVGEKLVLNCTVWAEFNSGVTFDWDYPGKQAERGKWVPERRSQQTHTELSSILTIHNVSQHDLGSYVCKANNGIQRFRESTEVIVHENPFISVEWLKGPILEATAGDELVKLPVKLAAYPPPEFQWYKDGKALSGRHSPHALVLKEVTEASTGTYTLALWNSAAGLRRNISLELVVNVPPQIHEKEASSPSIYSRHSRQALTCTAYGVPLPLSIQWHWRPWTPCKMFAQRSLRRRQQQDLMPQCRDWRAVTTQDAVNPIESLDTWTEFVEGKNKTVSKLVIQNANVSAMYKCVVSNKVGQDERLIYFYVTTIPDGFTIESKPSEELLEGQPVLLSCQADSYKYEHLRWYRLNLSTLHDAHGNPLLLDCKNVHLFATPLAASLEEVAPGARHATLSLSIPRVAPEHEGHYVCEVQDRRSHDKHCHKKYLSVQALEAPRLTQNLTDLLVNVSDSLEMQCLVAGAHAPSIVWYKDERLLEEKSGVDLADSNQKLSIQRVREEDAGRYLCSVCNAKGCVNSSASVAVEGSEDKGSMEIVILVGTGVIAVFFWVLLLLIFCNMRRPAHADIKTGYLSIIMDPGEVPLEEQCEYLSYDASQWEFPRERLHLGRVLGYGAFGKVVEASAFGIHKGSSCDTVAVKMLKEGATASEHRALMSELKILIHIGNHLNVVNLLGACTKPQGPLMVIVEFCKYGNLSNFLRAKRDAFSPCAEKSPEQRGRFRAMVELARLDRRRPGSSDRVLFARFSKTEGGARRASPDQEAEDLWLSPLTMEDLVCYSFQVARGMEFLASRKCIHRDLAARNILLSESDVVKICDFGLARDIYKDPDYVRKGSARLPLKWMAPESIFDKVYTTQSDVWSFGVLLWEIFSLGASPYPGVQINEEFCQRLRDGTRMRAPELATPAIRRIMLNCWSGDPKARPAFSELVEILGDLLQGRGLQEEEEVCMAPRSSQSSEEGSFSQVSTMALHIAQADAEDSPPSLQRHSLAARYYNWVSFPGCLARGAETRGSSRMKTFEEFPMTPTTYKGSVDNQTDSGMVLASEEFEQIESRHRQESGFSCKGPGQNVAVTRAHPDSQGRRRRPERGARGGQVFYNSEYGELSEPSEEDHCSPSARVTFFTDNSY

Compound | inhibition of spontaneous metastasis compared with Sorafenib and sunitinib [1] | luminescent signal intensity (metastatic tumor burden) [1] | overall survival life span [2] | luminescent signal intensity after tumor resection (tumor recurrence) ([2]; day 35 after tumor resection) | inhibition at 1 µM [3] [%] | tumor growth inhibition (tumor volume) ([4]; 50 mg/kg intraperitoneally once daily from day 14 after implantation, FIG. 1) | survival rate ([4]; 50 mg/kg intraperitoneally once daily, compared with Sorafenib-treated mice) | tumor recurrence reduction compared with sunitinib ([2]; day 35 after tumor resection) | ability in inhibiting tumor self-seeding compared with Sutent [5] | bioluminescence from the thoracic cavity ([5]; day 7 post the second 2-day drug treatment, compared with vehicle group, FIGS. 5A and 5B) | bioluminescence from the abdominal cavity compared with Sutent-treated group ([5]; day 14 post the second 2-day drug treatment) | bioluminescence from the abdominal cavity ([5]; day 14 post the second 2-day drug treatment, compared with vehicle group)
COC(=O)c1ccc2c(c1)nc(-c1ccc3cn(CCC(c4ccccc4)c4ccccc4)nc3c1)n2CCC1=CCCCC1 [Compound 2] | comparable or superior to the commercial drugs | significant lower luminescent signal intensity as compared with the vehicle group | increased the overall survival life span of the treated mice as compared with those in the vehicle group | lower luminescent signal intensity as compared with the corresponding group without continuous treatment | ~65 |  |  |  |  |  |  | 
CCCCc1nc2cccc(-c3nc4cc(C(=O)OC)ccc4n3CC(C)C)c2n1CCCC [Compound 56] | comparable or superior to the commercial drugs | did not exhibit any detectable luminescent signal | increased the overall survival life span of the treated mice as compared with those in the vehicle group | lower luminescent signal intensity as compared with the corresponding group without continuous treatment |  | inhibited tumor growth almost as effectively as Sutent and Sorafenib | higher survival rate than those treated with Sorafenib | reduced tumor recurrence to a degree comparable to that of sunitinib | comparable or even superior ability in inhibiting tumor self-seeding to that of Sutent | much weaker bioluminescence from the thoracic cavity | weaker bioluminescence form the abdominal cavity | much weaker bioluminescence form the abdominal cavity
CCCCc1nc2cccc(-c3nc4cc(C(=O)O)ccc4n3CC(C)C)c2n1CCCC [Compound 91] | comparable or superior to the commercial drugs | significant lower luminescent signal intensity as compared with the vehicle group | increased the overall survival life span of the treated mice as compared with those in the vehicle group | lower luminescent signal intensity as compared with the corresponding group without continuous treatment |  |  |  |  |  |  |  | 
